The source of these data is patent US11230541B2, “Heterocyclic compound” (Takeda Pharmaceutical Company Limited, priority 2017, dated 2022).

This assay deals with T1, NMDA receptor composed of four subunits including 2 sets of heterodimers of NR1 and NR2B (Homo sapiens, UniProt Q13224).
T1 construct: host or cells: HEK293 (tetracycline-induced expression)
Put plainly: NR2B Ca2+ influx assay (FLIPR, Fluo-4) in HEK293 cells expressing human GRIN1 and GRIN2B. The class given is cell-based. The note with it: glutamic acid/glycine-induced Ca2+ influx; for inhibition at 10 µM: HEK293, 10 μM final compound concentration, read-out: inhibitory rate (10 μM compound concentration). Put shortly: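 Inhibition rate was calculated from 5-min cumulative Fluo-4 signal (FLIPR, 3-s reads), using agonist-free buffer wells as 100% inhibition. Compound, 10 μM final, was applied 15 min before adding buffer with 30 μM glutamic acid and glycine to HEK293 cells with tetracycline-induced human NR1/NR2B, in HEPES pH 7.2 with 1.8 mM CaCl2.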

T1 sequence (Q13224 27-1484, other chains not shown): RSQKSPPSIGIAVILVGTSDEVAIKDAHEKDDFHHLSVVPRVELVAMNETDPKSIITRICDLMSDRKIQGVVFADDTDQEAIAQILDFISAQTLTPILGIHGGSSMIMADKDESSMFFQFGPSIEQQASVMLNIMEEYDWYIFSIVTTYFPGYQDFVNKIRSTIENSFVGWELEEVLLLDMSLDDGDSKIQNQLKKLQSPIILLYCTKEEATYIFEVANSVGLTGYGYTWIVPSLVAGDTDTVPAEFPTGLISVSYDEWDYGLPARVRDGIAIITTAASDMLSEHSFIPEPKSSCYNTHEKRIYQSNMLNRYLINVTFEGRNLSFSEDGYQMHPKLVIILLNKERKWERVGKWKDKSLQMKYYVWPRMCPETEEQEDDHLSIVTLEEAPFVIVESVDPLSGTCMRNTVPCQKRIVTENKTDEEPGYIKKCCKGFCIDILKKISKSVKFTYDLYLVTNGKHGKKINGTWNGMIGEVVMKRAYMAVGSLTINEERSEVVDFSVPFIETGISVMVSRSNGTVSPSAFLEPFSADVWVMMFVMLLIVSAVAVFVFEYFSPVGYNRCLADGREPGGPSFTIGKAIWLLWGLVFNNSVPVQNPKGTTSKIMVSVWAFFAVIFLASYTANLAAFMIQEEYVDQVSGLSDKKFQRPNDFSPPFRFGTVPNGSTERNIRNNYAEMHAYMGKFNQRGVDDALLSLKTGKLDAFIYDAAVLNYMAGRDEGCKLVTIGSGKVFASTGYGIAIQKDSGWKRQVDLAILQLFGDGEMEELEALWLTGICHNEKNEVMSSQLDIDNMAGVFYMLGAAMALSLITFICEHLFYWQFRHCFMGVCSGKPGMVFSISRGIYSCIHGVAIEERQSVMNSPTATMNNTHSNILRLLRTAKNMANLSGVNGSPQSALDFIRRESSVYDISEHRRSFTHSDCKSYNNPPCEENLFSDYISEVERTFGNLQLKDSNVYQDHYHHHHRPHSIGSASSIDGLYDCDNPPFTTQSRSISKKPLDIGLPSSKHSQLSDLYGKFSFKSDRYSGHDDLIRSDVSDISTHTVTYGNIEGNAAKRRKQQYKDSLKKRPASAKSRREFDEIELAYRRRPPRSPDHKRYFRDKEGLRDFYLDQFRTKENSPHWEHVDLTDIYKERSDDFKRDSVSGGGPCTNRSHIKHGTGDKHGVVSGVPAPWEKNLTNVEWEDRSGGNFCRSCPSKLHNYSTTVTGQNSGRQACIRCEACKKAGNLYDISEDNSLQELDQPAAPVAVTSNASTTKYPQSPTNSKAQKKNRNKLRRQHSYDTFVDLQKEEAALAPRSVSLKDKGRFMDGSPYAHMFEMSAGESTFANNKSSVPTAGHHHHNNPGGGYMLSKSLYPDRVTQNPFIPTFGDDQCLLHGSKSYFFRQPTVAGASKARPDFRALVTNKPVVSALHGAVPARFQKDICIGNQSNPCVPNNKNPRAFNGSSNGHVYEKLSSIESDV

As to `O=C(NCc1c(C(F)(F)F)ccc2[nH]ncc12)c1ccc(OC(F)(F)F)cc1` [Example 5, 4-(trifluoromethoxy)-N-((5-(trifluoromethyl)-1H-indazol-4-yl)methyl)benzamide], the inhibition at 10 µM came to 85%. The same measure, in the same setting: then `O=C(NCc1c(C2CC2)ccc2[nH]ncc12)c1ccc(Cl)s1` [Example 71, 5-chloro-N-((5-cyclopropyl-1H-indazol-4-yl)methyl)thiophene-2-carboxamide], with 92%; and `O=C(NCc1c(C2CC2)ccc2[nH]ncc12)c1ccc(OC(F)(F)F)nc1` [Example 106, N-((5-cyclopropyl-1H-indazol-4-yl)-methyl)-6-(trifluoro-methoxy)nicotinamide], with 93%. For `COc1ccc(C(=O)NCc2c(C)ccc3[nH]nnc23)cc1F` [Example 201, 3-fluoro-4-methoxy-N-((5-methyl-1H-benzotriazol-4-yl)methyl)benzamide], the inhibition at 10 µM came out at 92%. Take `Cc1ccc2ncn(C)c2c1CNC(=O)c1ccc(OC(F)F)c(Cl)c1` [Example 31, 3-chloro-4-(difluoromethoxy)-N-((1,6-dimethyl-1H-benzimidazol-7-yl)methyl)benzamide]: the inhibition at 10 µM is 91%. The same measure, in the same setting: then `COc1ccc2ncn(C)c2c1CNC(=O)c1ccc(C)s1` [Example 32, N-((6-methoxy-1-methyl-1H-benzimidazol-7-yl)methyl)-5-methylthiophene-2-carboxamide], with 77%; and `COc1ccc2ncn(C)c2c1CNC(=O)Nc1ccc(OC(F)(F)F)cc1` [Example 223, 1-((6-methoxy-1-methyl-1H-benzimidazol-7-yl)methyl)-3-(4-(trifluoromethoxy)-phenyl)urea], with 83%. Consider `COc1ccc2ncn(C)c2c1CNC(=O)c1ccc(C(F)(F)F)cc1` [Example 117, N-((6-methoxy-1-methyl-1H-benzimidazol-7-yl)methyl)-4-(trifluoromethyl)benzamide], for which the inhibition at 10 µM is 90%. As to `CCc1ccc2ncn(C)c2c1CNC(=O)c1ccc(OC(F)F)cc1` [Example 148, 4-(difluoromethoxy)-N-((6-ethyl-1-methyl-1H-benzimidazol-7-yl)methyl)benzamide], the inhibition at 10 µM was found to be 91%. For the compound `O=C(NCc1cccc2[nH]ncc12)c1ccc(C(F)F)c(F)c1` [Example 178, 4-(difluoromethyl)-3-fluoro-N-(1H-indazol-4-ylmethyl)benzamide], the inhibition at 10 µM came to 70%. Still for that read-out and setting: then `CCc1ccc2ncn(C)c2c1CNC(=O)c1ccc(OC(F)(F)F)nc1` [Example 149, N-((6-ethyl-1-methyl-1H-benzimidazol-7-yl)methyl)-6-(trifluoromethoxy)-nicotinamide], with 93%.

Turning to `CCc1ccc2ncn(C)c2c1CNC(=O)c1ccc(OC(F)F)nc1` [Example 164, 6-(difluoromethoxy)-N-((6-ethyl-1-methyl-1H-benzimidazol-7-yl)methyl)nicotinamide], the inhibition at 10 µM worked out at 92%. Consider `COc1ccc2ncn(C)c2c1CNC(=O)c1csc(C(F)(F)F)c1` [Example 139, N-((6-methoxy-1-methyl-1H-benzimidazol-7-yl)methyl)-5-(trifluoromethyl)thiophene-3-carboxamide], for which the inhibition at 10 µM is 91%. As for `COc1ccc2ncn(C)c2c1CNC(=O)c1ccc(F)c(Cl)c1` [Example 37, 3-chloro-4-fluoro-N-((6-methoxy-1-methyl-1H-benzimidazol-7-yl)methyl)benzamide], the inhibition at 10 µM was 91%.

With `Cc1ccc2ncn(C)c2c1CNC(=O)c1csc(C(F)(F)F)c1` [Example 163, N-((1,6-dimethyl-1H-benzimidazol-7-yl)methyl)-5-(trifluoromethyl)-thiophene-3-carboxamide], the inhibition at 10 µM came to 89%. In the case of `Cc1ccc2[nH]nnc2c1CNC(=O)c1cc(F)c(C(F)(F)F)c(F)c1` [Example 195, 3,5-difluoro-N-((5-methyl-1H-benzotriazol-4-yl)methyl)-4-(trifluoromethyl)-benzamide], the inhibition at 10 µM turned out to be 91%. As to `COc1ccc2[nH]ncc2c1CNC(=O)c1ccc(OC(F)(F)F)cc1` [Example 6, N-((5-methoxy-1H-indazol-4-yl)methyl)-4-(trifluoromethoxy)benzamide], the inhibition at 10 µM turned out to be 91%. In the case of `O=C(NCc1c(C2CC2)ccc2[nH]ncc12)c1ccc(C(F)(F)F)s1` [Example 82, N-((5-cyclopropyl-1H-indazol-4-yl)methyl)-5-(trifluoromethyl)-thiophene-2-carboxamide], the inhibition at 10 µM is 94%. The same measure, in the same setting: in the case of `Cc1ccc2ncn(C)c2c1CNC(=O)c1ccc(OC(F)(F)F)c(Cl)c1` [Example 60, 3-chloro-N-((1,6-dimethyl-1H-benzimidazol-7-yl)-methyl)-4-(trifluoro-methoxy)benzamide] it was 94%; in that of `Cc1cc(C(=O)NCc2c(C3CC3)ccc3[nH]ncc23)cc(F)c1F` [Example 76, N-((5-cyclopropyl-1H-indazol-4-yl)methyl)-3,4-difluoro-5-methyl-benzamide], 93%. Turning to `COc1ccc2ncn(C)c2c1CNC(=O)c1ccc(C(F)(F)F)s1` [Example 50, N-((6-methoxy-1-methyl-1H-benzimidazol-7-yl)-methyl)-5-(trifluoro-methyl)thiophene-2-carboxainide], the “inhibitory rate (10 μM compound concentration)” value (10 μM final compound concentration) is on record as 89. For `COc1ccc(C(=O)NCc2c(OC)ccc3ncn(C)c23)cc1Cl` [Example 34, 3-chloro-4-methoxy-N-((6-methoxy-1-methyl-1H-benzimidazol-7-yl)methyl)benzamide], the inhibition at 10 µM came out at 89%. In the case of `Cc1ccc2ncn(C)c2c1CNC(=O)c1csc(C(F)F)c1` [Example 142, 5-(difluoromethyl)-N-((1,6-dimethyl-1H-benzimidazol-7-yl)methyl)thiophene-3-carboxamide], the inhibition at 10 µM amounted to 85%.

Regarding `CCn1cnc2ccc(OC)c(CNC(=O)c3cc(F)c(OC)c(F)c3)c21` [Example 151, N-((1-ethyl-6-methoxy-1H-benzimidazol-7-yl)methyl)-3,5-difluoro-4-methoxybenzamide], the inhibition at 10 µM turned out to be 83%.

With `COc1ccc2ncn(C)c2c1CNC(=O)Nc1ccc(F)cc1` [Example 224, 1-(4-fluorophenyl)-3-((6-methoxy-1-methyl-1H-benzimidazol-7-yl)methyl)urea], the inhibition at 10 µM was found to be 81%. The same measure, in the same setting: in the case of `O=C(NCc1cccc2[nH]ncc12)c1cc(F)c(C(F)(F)F)c(F)c1` [Example 173, 3,5-difluoro-N-(1H-indazol-4-ylmethyl)-4-(trifluoromethyl)-benzamide] it was 80%.

Turning to `COc1c(F)cc(C(=O)NCc2c(C3CC3)ccc3[nH]nnc23)cc1F` [Example 204, N-((5-cyclopropyl-1H-benzotriazol-4-yl)methyl)-3,5-difluoro-4-methoxybenzamide], the inhibition at 10 µM was 93%. On the same count and under the same terms, then `CCc1ccc2[nH]ncc2c1CNC(=O)c1cc(F)c(OC)c(F)c1` [Example 16, N-((5-ethyl-1H-indazol-4-yl)methyl)-3,5-difluoro-4-methoxybenzamide], with 94%; and `O=C(NCc1c(I)ccc2[nH]ncc12)c1ccc(OC(F)(F)F)cc1` [Example 4, N-((5-iodo-1H-indazol-4-yl)methyl)-4-(trifluoromethoxy)benzamide], with 87%.
